Results reported in patent US20060069132A1, “Azolecarboxamide herbicides” (priority 2004, published 2006).

How the values were obtained:
Surinam grass = test: Test B pre-/postemergence herbicide test; type: in vivo, Urochloa decumbens; details: for Surinam Grass plant response rating: postemergence, visual rating
In short: (§1)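 Flooded paddy rice and barnyardgrass were treated at the 2-leaf stage; upland plantings received compound either on sown seed or on 1- to 4-leaf seedlings. All were kept 13–15 days in a greenhouse and scored visually, 0–100, relative to untreated plants.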

[1] = tested on: small flower umbrella sedge; test: Test B flooded paddy test; type: in vivo, Cyperus difformis; details: 1000 g ai/ha, visual rating, scale 0 to 100 (0 no effect, 100 complete control), 13 to 15 days
In short: (§2)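 Read-out: visual comparison with controls, scored 0 to 100, where 100 means complete control and 0 no effect. Formulated chemicals were applied postemergence to plants 2–18 cm tall (1- to 4-leaf), or to flooded-paddy plants at the 2-leaf stage, then held 13 to 15 days under glass.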

wheat = test: Test B postemergence herbicide test; type: in vivo, Triticum aestivum; set-up: key to Wheat plant response rating: 0 = no effect, 100 = complete control; details: scale 0 (no effect) to 100 (complete control); for Plant response rating, Wheat: Postemergence, 500 g ai/ha, visual rating after 13 to 15 days; for Wheat plant response rating: postemergence, 125 g ai/ha, visual rating
In short: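 Greenhouse test; postemergence application to plants at 1–4 leaves (2–18 cm); paddy species at 2 leaves; evaluated visually vs controls at 13–15 days; scale 0–100 (100 = complete control).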

morningglory = test: Test B pre-/postemergence herbicide test; type: in vivo, Ipomoea coccinea
In short: (§3)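 Pre: seeds sown, then sprayed. Post: 1–4-leaf plants (2–18 cm) sprayed at the same time. Paddy: flooded, treated at 2-leaf stage. Formulation: non-phytotoxic solvent with surfactant. Greenhouse 13–15 days; visual 0–100 score relative to controls.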

pigweed = test: Test B pre-/postemergence herbicide test; type: in vivo, Amaranthus retroflexus; details: for Pigweed plant response rating: postemergence, visual rating
In short: as §1

barnyardgrass [2] = test: Test B flooded paddy test; type: in vivo, Echinochloa crus-galli; details: 1000 g ai/ha, visual rating, scale 0 to 100 (0 no effect, 100 complete control), 13 to 15 days
In short: as §2

ducksalad = test: Test B flooded paddy test; type: in vivo, Heteranthera limosa; details: 1000 g ai/ha, visual rating, scale 0 to 100 (0 no effect, 100 complete control), 13 to 15 days
In short: as §2

giant foxtail = test: Test B pre-/postemergence herbicide test; type: in vivo, Setaria faberi; details: for Foxtail, Giant plant response rating: postemergence, visual rating
In short: as §1

large crabgrass = test: Test B pre-/postemergence herbicide test; type: in vivo, Digitaria sanguinalis; details: for Crabgrass, Large plant response rating: postemergence, visual rating
In short: as §1

cocklebur = test: Test B pre-/postemergence herbicide test; type: in vivo, Xanthium strumarium; details: for Cocklebur plant response rating: postemergence, visual rating
In short: as §3

velvetleaf = test: Test B pre-/postemergence herbicide test; type: in vivo, Abutilon theophrasti; details: for Velvetleaf plant response rating: postemergence, visual rating
In short: as §1

barnyardgrass [3] = test: Test B pre-/postemergence herbicide test; type: in vivo, Echinochloa crus-galli; details: for Barnyardgrass plant response rating: postemergence, visual rating
In short: as §3

blackgrass = test: Test B postemergence herbicide test; type: in vivo, Alopecurus myosuroides; details: scale 0 (no effect) to 100 (complete control); for Plant response rating, Blackgrass: Postemergence, 500 g ai/ha, visual rating after 13 to 15 days; for Blackgrass plant response rating: postemergence, 125 g ai/ha, visual rating
In short: as §2

rice = test: Test B flooded paddy test; type: in vivo, Oryza sativa; details: 1000 g ai/ha, visual rating, scale 0 to 100 (0 no effect, 100 complete control), 13 to 15 days
In short: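 After treating 2-leaf paddy plants or 2–18 cm postemergence plants (1 to 4 leaves) with formulated chemical, researchers kept them in a greenhouse for 13–15 days. Effects were judged visually versus controls: 0 indicates none, 100 total control.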

lambsquarters = test: Test B pre-/postemergence herbicide test; type: in vivo, Chenopodium album; details: for Lambsquarters plant response rating: postemergence, visual rating
In short: as §1

[4] = 500 g ai/ha, visual rating 0-100, 0 no effect, 100 complete control, preemergence
[5] = Postemergence, 500 g ai/ha, visual rating after 13 to 15 days, scale 0 (no effect) to 100 (complete control)
[6] = 125 g ai/ha, scale 0 (no effect) to 100 (complete control)
[7] = preemergence, 125 g ai/ha, 0 to 100 scale, 0 is no effect, 100 is complete control

Question: What does the source list for `C=CCn1nc(C(C)(C)C)cc1C(=O)Nc1cccc(C(C)=NO)c1` [Compound 117]?
Answer: Plant response rating, Surinam Grass (Surinam grass; [4]): 60; Plant response rating, Surinam Grass (Surinam grass; [5]): 40; Surinam Grass plant response rating (Surinam grass; [6]): 30; Plant response rating, Surinam Grass (Surinam grass; [7]): 30; Sedge, Umbrella plant response rating [1]: 90; Plant response rating, Wheat (wheat): 20; Wheat plant response rating (wheat): 10; Plant response rating, Morningglory (morningglory; [4]): 60; Plant response rating, Pigweed (pigweed; [4]): 90; Plant response rating, Pigweed (pigweed; [5]): 90; Pigweed plant response rating (pigweed; [6]): 50; Plant response rating, Pigweed (pigweed; [7]): 60; Barnyardgrass plant response rating (barnyardgrass [2]): 70; Ducksalad plant response rating (ducksalad): 80; Plant response rating, Foxtail, Giant (giant foxtail; [4]): 80; Plant response rating, Foxtail, Giant (giant foxtail; [5]): 20; Foxtail, Giant plant response rating (giant foxtail; [6]): 10; Plant response rating, Foxtail, Giant (giant foxtail; [7]): 20; Plant response rating, Crabgrass, Large (large crabgrass; [4]): 100; Plant response rating, Crabgrass, Large (large crabgrass; [5]): 30; Crabgrass, Large plant response rating (large crabgrass; [6]): 10; Plant response rating, Crabgrass, Large (large crabgrass; [7]): 90; Plant response rating, Cocklebur (cocklebur; [4]): 30; Plant response rating, Cocklebur (cocklebur; [5]): 90; Cocklebur plant response rating (cocklebur; [6]): 30; Plant response rating, Cocklebur (cocklebur; [7]): 20; Plant response rating, Velvetleaf (velvetleaf; [4]): 70; Plant response rating, Velvetleaf (velvetleaf; [5]): 50; Velvetleaf plant response rating (velvetleaf; [6]): 20; Plant response rating, Velvetleaf (velvetleaf; [7]): 60; Plant response rating, Barnyardgrass (barnyardgrass [3]; [4]): 90; Plant response rating, Barnyardgrass (barnyardgrass [3]; [5]): 30; Barnyardgrass plant response rating (barnyardgrass [3]; [6]): 20; Plant response rating, Barnyardgrass (barnyardgrass [3]; [7]): 60; Plant response rating, Blackgrass (blackgrass): 10; Blackgrass plant response rating (blackgrass): 0; Rice plant response rating (rice): 50; Plant response rating, Lambsquarters (lambsquarters; [4]): 100; Plant response rating, Lambsquarters (lambsquarters; [5]): 90; Lambsquarters plant response rating (lambsquarters; [6]): 60; Plant response rating, Lambsquarters (lambsquarters; [7]): 90

Question: Which “Plant response rating, Surinam Grass” value (Surinam grass; [4]) does the source give for `CCC(=NO)c1cccc(NC(=O)c2cc(C(C)(C)C)nn2C)c1` [Compound 118] here?
Answer: The value was 50.

Question: What about the “Plant response rating, Surinam Grass” value (Surinam grass; [5]) of the same compound?
Answer: The value was 40.

Question: And the “Surinam Grass plant response rating” value (Surinam grass; [6])?
Answer: Its value is 40.

Question: And the “Plant response rating, Surinam Grass” value (Surinam grass; [7])?
Answer: The value was 10.

Question: What about the “Sedge, Umbrella plant response rating” value [1] of the same compound?
Answer: The value was 80.

Question: And the “Plant response rating, Wheat” value (wheat)?
Answer: Its value is 10.

Question: And the “Wheat plant response rating” value (wheat)?
Answer: The value was 10.

Question: What about the “Plant response rating, Morningglory” value (morningglory; [4]) of the same compound?
Answer: Its value is 60.

Question: What about the “Plant response rating, Morningglory” value (morningglory; [5]) of the same compound?
Answer: The value was 70.

Question: And the “Morningglory plant response rating” value (morningglory; postemergence, 125 g ai/ha, visual rating, scale 0 (no effect) to 100 (complete control))?
Answer: Its value is 20.

Question: And the “Plant response rating, Morningglory” value (morningglory; [7])?
Answer: Its value is 10.

Question: And the “Plant response rating, Pigweed” value (pigweed; [4])?
Answer: The value was 90.

Question: What about the “Plant response rating, Pigweed” value (pigweed; [5]) of the same compound?
Answer: The value was 100.

Question: And the “Pigweed plant response rating” value (pigweed; [6])?
Answer: The value was 60.

Question: What about the “Plant response rating, Pigweed” value (pigweed; [7]) of the same compound?
Answer: The value was 60.

Question: What about the “Barnyardgrass plant response rating” value (barnyardgrass [2]) of the same compound?
Answer: Its value is 50.

Question: And the “Ducksalad plant response rating” value (ducksalad)?
Answer: The value was 80.

Question: And the “Plant response rating, Foxtail, Giant” value (giant foxtail; [4])?
Answer: Its value is 70.

Question: What about the “Plant response rating, Foxtail, Giant” value (giant foxtail; [5]) of the same compound?
Answer: Its value is 20.

Question: What about the “Foxtail, Giant plant response rating” value (giant foxtail; [6]) of the same compound?
Answer: Its value is 10.

Question: And the “Plant response rating, Foxtail, Giant” value (giant foxtail; [7])?
Answer: The value was 10.

Question: What about the “Plant response rating, Crabgrass, Large” value (large crabgrass; [4]) of the same compound?
Answer: The value was 100.

Question: And the “Plant response rating, Crabgrass, Large” value (large crabgrass; [5])?
Answer: Its value is 30.

Question: What about the “Crabgrass, Large plant response rating” value (large crabgrass; [6]) of the same compound?
Answer: Its value is 20.

Question: And the “Plant response rating, Crabgrass, Large” value (large crabgrass; [7])?
Answer: Its value is 90.

Question: What about the “Plant response rating, Cocklebur” value (cocklebur; [4]) of the same compound?
Answer: The value was 10.

Question: And the “Plant response rating, Cocklebur” value (cocklebur; [5])?
Answer: The value was 90.

Question: And the “Cocklebur plant response rating” value (cocklebur; [6])?
Answer: Its value is 70.

Question: And the “Plant response rating, Cocklebur” value (cocklebur; [7])?
Answer: The value was 0.

Question: And the “Plant response rating, Velvetleaf” value (velvetleaf; [4])?
Answer: Its value is 10.

Question: And the “Plant response rating, Velvetleaf” value (velvetleaf; [5])?
Answer: Its value is 40.

Question: And the “Velvetleaf plant response rating” value (velvetleaf; [6])?
Answer: Its value is 20.

Question: And the “Plant response rating, Velvetleaf” value (velvetleaf; [7])?
Answer: Its value is 0.

Question: What about the “Plant response rating, Barnyardgrass” value (barnyardgrass [3]; [4]) of the same compound?
Answer: Its value is 90.

Question: And the “Plant response rating, Barnyardgrass” value (barnyardgrass [3]; [5])?
Answer: The value was 30.

Question: What about the “Barnyardgrass plant response rating” value (barnyardgrass [3]; [6]) of the same compound?
Answer: Its value is 10.

Question: And the “Plant response rating, Barnyardgrass” value (barnyardgrass [3]; [7])?
Answer: The value was 10.

Question: And the “Plant response rating, Blackgrass” value (blackgrass)?
Answer: The value was 10.

Question: And the “Blackgrass plant response rating” value (blackgrass)?
Answer: Its value is 0.

Question: What about the “Rice plant response rating” value (rice) of the same compound?
Answer: The value was 80.

Question: What about the “Plant response rating, Lambsquarters” value (lambsquarters; [4]) of the same compound?
Answer: Its value is 0.

Question: And the “Plant response rating, Lambsquarters” value (lambsquarters; [5])?
Answer: The value was 20.

Question: And the “Lambsquarters plant response rating” value (lambsquarters; [6])?
Answer: Its value is 0.

Question: And the “Plant response rating, Lambsquarters” value (lambsquarters; [7])?
Answer: The value was 0.
